# Patent EP0429372A1, “2-Azolyl nicotinate derivatives as herbicides” (RHONE-POULENC AGROCHIMIE, priority 1989, dated 1991)
# Like-named read-outs stand apart in the source and are kept apart here.
# How the values were obtained:
# Format in all cases: in vivo
# Xanthium pennsylvanicum = assay: Example C: selectivity test in major crops, post-emergence application
# From the text: (§1) Dans des pots de 7 x 7 x 8 cm remplis de terre agricole légère, on sème un nombre de graines déterminé en fonction de l'espèce végétale et de la grosseur de la graine.
# (§2) On recouvre ensuite les graines d'une couche de terre d'environ 3 mm d'épaisseur et on laisse germer la graine jusqu'à ce qu'elle donne naissance à une plantule au stade convenable. Le stade de traitement pour les graminées est le stade "deuxième feuille en formation". Le stade de traitement pour les dicotylédones, est le stade "cotylédons étalés, première feuille vraie en développement".
# (§3) Les pots sont alors traités par pulvérisation de bouillie en quantité correspondant à une dose volumique d'application de 500 l/ha et contenant la matière active à la concentration désirée.
# (§4) La bouillie a été préparée de la même manière qu'à l'exemple A.
# (§5) Les pots traités sont ensuite placés dans des bacs destinés à recevoir l'eau d'arrosage, en subirrigation, et maintenus pendant 24 jours à température ambiante sous 70 % d'humidité relative.
# (§6) Au bout de 24 jours, on mesure un pourcentage (D) de destruction du nombre de pieds dans le pot traité par rapport au nombre de plantes dans les pots non traités (témoin). On mesure, sur les plantes traitées restantes, le pourcentage de réduction de taille (RT) par rapport aux plantes témoin.
# (§7) Le pourcentage de volume foliaire non détruit par le produit est donc donné par la formule : [formula]
# (§8) Cette valeur A est transformée en notation de 0 à 5 selon l'échelle suivante :
# (§9) Ainsi, un produit est jugé comme sélectif vis à vis de la culture lorsque la valeur A notée est de 0 ou 1.
# (§10) Les résultats obtenus sont présentés dans l'exemple C pour des doses d'application comprises entre 0,5 et 4 kg de matière active par hectare selon les produits.
# Triticum aestivum = assay: as above; conditions: crop (Blé), 24 days, score 0-5, 0 or 1 = selective; note: ranges in brackets are in %
# From the text: as §1, §2, §3, §4, §5, §6, §7, §8, §9, §10
# Oryza sativa = assay: as above; conditions: crop (Riz), 24 days, score 0-5, 0 or 1 = selective; note: ranges in brackets are in %
# From the text: as §1, §2, §3, §4, §5, §6, §7, §8, §9, §10
# Sinapis alba [1] = assay: as above
# From the text: as §1, §2, §3, §4, §5, §6, §7, §8, §9, §10
# Solanum nigrum [2] = assay: as above
# From the text: as §1, §2, §3, §4, §5, §6, §7, §8, §9, §10
# Zea mays = assay: as above; conditions: crop (Maïs), 24 days, score 0-5, 0 or 1 = selective; note: ranges in brackets are in %
# From the text: as §1, §2, §3, §4, §5, §6, §7, §8, §9, §10
# Ipomea pupurea = assay: as above
# From the text: as §1, §2, §3, §4, §5, §6, §7, §8, §9, §10
# Sesbania exaltata = assay: as above
# From the text: as §1, §2, §3, §4, §5, §6, §7, §8, §9, §10
# Sinapis alba [3] = assay: Example B: post-emergence herbicidal application, pot test
# From the text: as §1
# as §2, with “formation ".” for “formation".”
# as §3
# (§11) La bouille a été préparée de la même manière qu'à l'exemple A.
# as §5, §6
# (§12) Le pourcentage du volume foliaire non détruit par le produit est donc donné par la formule : [formula]
# as §8
# (§13) Les résultats obtenus sont présentés après le tableau A pour des doses d'application de 4000 g/ha.
# Digitaria sanguinalis = assay: as above
# From the text: as §1
# as §2, with “formation ".” for “formation".”
# as §3, §11, §5, §6, §12, §8, §13
# Lolium multiflorum = assay: as above; conditions: 4 kg/ha, rated after 24 days, score 0-5 from % leaf volume not destroyed
# From the text: as §1
# as §2, with “formation ".” for “formation".”
# as §3, §11, §5, §6, §12, §8, §13
# Ipomea purpurea = assay: as above
# From the text: as §1
# as §2, with “formation ".” for “formation".”
# as §3, §11, §5, §6, §12, §8, §13
# Solanum nigrum [4] = assay: as above
# From the text: as §1
# as §2, with “formation ".” for “formation".”
# as §3, §11, §5, §6, §12, §8, §13
# Viola tricolor = assay: Example C: selectivity test in major crops, post-emergence application; conditions: 576 h
# From the text: as §1, §2, §3, §4, §5, §6, §7, §8, §9, §10
# Chrysanthemum segetum = conditions: post-emergence, 576 h
# From the text: as §1, §2, §3, §4, §5, §6, §7, §8, §9, §10
# Convolvulus arvensis = conditions: post-emergence, 576 h
# From the text: as §1, §2, §3, §4, §5, §6, §7, §8, §9, §10
# Polygonum convolvulus = conditions: 576 h
# From the text: as §1, §2, §3, §4, §5, §6, §7, §8, §9, §10
# Echinochloa crusgalli = assay: Example B: post-emergence herbicidal application, pot test; conditions: 4000 g/ha, 576 h
# From the text: as §1
# as §2, with “formation ".” for “formation".”
# as §3, §11, §5, §6, §12, §8, §13
# [5] = weed, dose 2 kg/ha, 24 days, score 0-5
# [6] = 4 kg/ha, rated after 24 days, score 0-5 from % leaf volume not destroyed
compound,measurement,setting,value
"CN(C)S(=O)(=O)n1nc(-c2ccccc2)nc1-c1ncccc1C(=O)O [compound 7, Acide 3 - (3 - carboxy 2 - pyridyl) 2 - N,N - diméthyl sulfamoyl 5 - phényl 1,2,4 -triazole]",ACTIVITE HERBICIDE DE POST LEVEE X A N,Xanthium pennsylvanicum; [5],4 (10 à 30)
same,ACTIVITE HERBICIDE DE POST LEVEE T R Z,Triticum aestivum; dose 2 kg/ha,0 (90 à 100)
same,ACTIVITE HERBICIDE DE POST LEVEE O R Y,Oryza sativa; dose 2 kg/ha,0 (90 à 100)
same,ACTIVITE HERBICIDE DE POST LEVEE S I N,Sinapis alba [1]; [5],5 (O à 10)
same,ACTIVITE HERBICIDE DE POST LEVEE S O L,Solanum nigrum [2]; [5],4 (10 à 30)
same,ACTIVITE HERBICIDE DE POST LEVEE Z E A,Zea mays; dose 2 kg/ha,0 (90 à 100)
same,ACTIVITE HERBICIDE DE POST LEVEE I P O,"Ipomea pupurea; weed, post-emergence, dose 2 kg/ha, 24 days, score 0-5",4 (10 à 30)
same,ACTIVITE HERBICIDE DE POST LEVEE S E S,Sesbania exaltata; [5],5 (O à 10)
same,ACTIVITE DE POST-LEVEE SIN,Sinapis alba [3]; [6],5 (O à 10)
same,ACTIVITE DE POST-LEVEE DIG,Digitaria sanguinalis; [6],1 (70 à 90)
same,ACTIVITE DE POST-LEVEE LOL,Lolium multiflorum,1 (70 à 90)
same,ACTIVITE DE POST-LEVEE IPO,Ipomea purpurea; [6],4 (10 à 30)
same,ACTIVITE DE POST-LEVEE SOL,Solanum nigrum [4]; [6],5 (O à 10)
CCOC(=O)c1cccnc1-c1nc(-c2ccccc2)nn1S(=O)(=O)N(C)C [compound 19],ACTIVITE HERBICIDE DE POST LEVEE X A N,"Xanthium pennsylvanicum; 4000 g/ha, 576 h",2 (50 à 70)
same,ACTIVITE HERBICIDE DE POST LEVEE T R Z,Triticum aestivum; dose 4 kg/ha,0 (90 à 100)
same,ACTIVITE HERBICIDE DE POST LEVEE O R Y,Oryza sativa; dose 4 kg/ha,0 (90 à 100)
same,ACTIVITE HERBICIDE DE POST LEVEE S I N,"Sinapis alba [1]; 4000 g/ha, 576 h",5 (O à 10)
same,ACTIVITE HERBICIDE DE POST LEVEE S O L,"Solanum nigrum [2]; 4000 g/ha, 576 h",5 (O à 10)
same,ACTIVITE HERBICIDE DE POST LEVEE Z E A,Zea mays; dose 4 kg/ha,0 (90 à 100)
same,ACTIVITE HERBICIDE DE POST LEVEE I P O,"Ipomea pupurea; 4000 g/ha, 576 h",4 (10 à 30)
same,ACTIVITE HERBICIDE DE POST LEVEE S E S,"Sesbania exaltata; 4000 g/ha, 576 h",5 (O à 10)
CN(C)S(=O)(=O)n1c(-c2ncccc2C(=O)O)nc2c(Cl)cccc21 [compound 79],ACTIVITE HERBICIDE DE POST LEVEE X A N,"Xanthium pennsylvanicum; 2000 g/ha, 576 h",1 (70 à 90)
same,ACTIVITE HERBICIDE DE POST LEVEE T R Z,Triticum aestivum; dose 2 kg/ha,0 (90 à 100)
same,ACTIVITE HERBICIDE DE POST LEVEE O R Y,Oryza sativa; dose 2 kg/ha,0 (90 à 100)
same,ACTIVITE HERBICIDE DE POST LEVEE V I O,Viola tricolor; 2000 g/ha,1 (70 à 90)
same,ACTIVITE HERBICIDE DE POST LEVEE S O L,"Solanum nigrum [2]; 2000 g/ha, 576 h",3 (30 à 50)
same,ACTIVITE HERBICIDE DE POST LEVEE Z E A,Zea mays; dose 2 kg/ha,0 (90 à 100)
same,ACTIVITE HERBICIDE DE POST LEVEE I P O,"Ipomea pupurea; 2000 g/ha, 576 h",4 (10 à 30)
same,ACTIVITE HERBICIDE DE POST LEVEE S E S,"Sesbania exaltata; 2000 g/ha, 576 h",2 (50 à 70)
same,ACTIVITE HERBICIDE DE POST LEVEE C H Y,Chrysanthemum segetum; 2000 g/ha,4 (10 à 30)
same,ACTIVITE HERBICIDE DE POST LEVEE C O N,Convolvulus arvensis; 2000 g/ha,4 (10 à 30)
same,ACTIVITE HERBICIDE DE POST LEVEE P O L,Polygonum convolvulus; 2000 g/ha,3 (30 à 50)
CN(C)S(=O)(=O)n1c(-c2ncccc2C(=O)O)nc2cc(Cl)ccc21 [compound 84],ACTIVITE HERBICIDE DE POST LEVEE X A N,"Xanthium pennsylvanicum; 1000 g/ha, 576 h",3 (30 à 50)
same,ACTIVITE HERBICIDE DE POST LEVEE T R Z,Triticum aestivum; dose 1 kg/ha,1 (70 à 90)
same,ACTIVITE HERBICIDE DE POST LEVEE O R Y,Oryza sativa; dose 1 kg/ha,1 (70 à 90)
same,ACTIVITE HERBICIDE DE POST LEVEE V I O,Viola tricolor; 1000 g/ha,2 (50 à 70)
same,ACTIVITE HERBICIDE DE POST LEVEE S O L,"Solanum nigrum [2]; 1000 g/ha, 576 h",5 (O à 10)
same,ACTIVITE HERBICIDE DE POST LEVEE Z E A,Zea mays; dose 1 kg/ha,1 (70 à 90)
same,ACTIVITE HERBICIDE DE POST LEVEE I P O,"Ipomea pupurea; 1000 g/ha, 576 h",4 (10 à 30)
same,ACTIVITE HERBICIDE DE POST LEVEE S E S,"Sesbania exaltata; 1000 g/ha, 576 h",5 (O à 10)
same,ACTIVITE DE POST-LEVEE SIN,"Sinapis alba [3]; 4000 g/ha, 576 h",5 (O à 10)
same,ACTIVITE DE POST-LEVEE DIG,"Digitaria sanguinalis; 4000 g/ha, 576 h",0 (90 à 100)
same,ACTIVITE DE POST-LEVEE IPO,"Ipomea purpurea; 4000 g/ha, 576 h",3 (30 à 50)
same,ACTIVITE DE POST-LEVEE SOL,"Solanum nigrum [4]; 4000 g/ha, 576 h",5 (O à 10)
same,ACTIVITE DE POST-LEVEE ECH,Echinochloa crusgalli,0 (90 à 100)
same,ACTIVITE HERBICIDE DE POST LEVEE C H Y,Chrysanthemum segetum; 1000 g/ha,5 (O à 10)
same,ACTIVITE HERBICIDE DE POST LEVEE C O N,Convolvulus arvensis; 1000 g/ha,5 (O à 10)
same,ACTIVITE HERBICIDE DE POST LEVEE P O L,Polygonum convolvulus; 1000 g/ha,4 (10 à 30)
